Laboratory results published in US7442693B2, “Diazepine compounds as ligands of the melanocortin 1 and/or 4 receptors” (SmithKline Beecham Corporation, priority 2004, dated 2008).

Assays:
human MC1R = target: T1, human MC1R (Homo sapiens, UniProt Q01726); experiment: CHO-6xCRE-luc+ reporter gene assay, MC1R agonist activity; type: cell-based; conditions: for Emax: 4 h, read-out: % of MSH
T1 construct: expressed in transfected cells; host or cells: CHO-6xCRE-luc+ reporter cell line
Description: (§1) CHO-6×CRE-luc^+ reporter cell lines expressing human MC1R, MC3R, MC4R, and MC5R (GenBank accession numbers X65634, L06155, S77415 and U08353) and the CHO host reporter gene cell line were propagated in complete medium in T225 flasks. Forty-eight hours prior to assay, cells were harvested with 2 ml of 0.05% trypsin, washed with complete medium and plated at a concentration of 4000 cells/well in complete medium. Sixteen hours prior to the assay, the medium was removed from the cells and replaced with 90 μl/well of serum-free DMEM/F12. At the time of the assay the compounds were added in a 10 μl volume and plates were incubated for 4 h at 37° C. in a cell culture incubator. The medium was aspirated followed by the addition of 50 μl of a 1:1 mixture of LucLite™ and dPBS containing 1 mM CaCl2 and 1 mM MgCl2. The plates were then sealed and subjected to dark adaptation at room temperature for 10 min before luciferase activity was quantitated on a TopCount™ microplate scintillation counter (Packard) using 3 s/well count time. The NDP-αMSH and 154N-5 concentration-response curve data were expressed as a percentage of the fold stimulation in the NDP-αMSH control for each receptor subtype. The control value is the average of duplicate wells treated with 1×10^−7 M NDP-αMSH.

human MC4R = target: T2, human MC4R (Homo sapiens, UniProt P32245); experiment: CHO-6xCRE-luc+ reporter gene assay, MC4R agonist activity; type: cell-based; conditions: for Emax: 4 h, percentage of the fold stimulation in the NDP-αMSH control (1×10^−7 M), human MC4R, read-out: % Max MSH; for EC50: CHO-6xCRE-luc+ cells expressing human MC4R, 4 h at 37° C., luciferase activity
T2 construct: expressed in transfected cells; host or cells: CHO-6xCRE-luc+ reporter cell line
T2 sequence (P32245 whole entry): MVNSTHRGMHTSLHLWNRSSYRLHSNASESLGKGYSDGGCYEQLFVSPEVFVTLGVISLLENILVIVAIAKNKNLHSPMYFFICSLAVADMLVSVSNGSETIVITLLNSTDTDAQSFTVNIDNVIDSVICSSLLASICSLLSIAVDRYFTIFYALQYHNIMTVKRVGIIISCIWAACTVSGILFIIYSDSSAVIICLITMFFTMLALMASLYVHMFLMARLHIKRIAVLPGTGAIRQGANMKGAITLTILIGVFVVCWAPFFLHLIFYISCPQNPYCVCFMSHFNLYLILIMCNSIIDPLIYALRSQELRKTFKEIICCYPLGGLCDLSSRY
Description: as §1

[1] = percentage of the fold stimulation in the NDP-αMSH control (1×10^−7 M), human MC1R
[2] = CHO-6xCRE-luc+ cells expressing human MC1R, 4 h at 37° C., luciferase activity

T1 sequence (Q01726 whole entry): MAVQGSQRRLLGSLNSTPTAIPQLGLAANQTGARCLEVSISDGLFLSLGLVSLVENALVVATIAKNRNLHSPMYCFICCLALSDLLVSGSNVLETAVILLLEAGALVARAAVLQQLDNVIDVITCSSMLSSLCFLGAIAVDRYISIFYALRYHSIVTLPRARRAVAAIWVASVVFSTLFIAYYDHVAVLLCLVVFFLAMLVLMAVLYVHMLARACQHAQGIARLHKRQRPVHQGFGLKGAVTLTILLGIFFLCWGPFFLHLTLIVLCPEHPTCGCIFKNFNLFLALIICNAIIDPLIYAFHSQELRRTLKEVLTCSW

Emax (human MC1R; [1]) [%]	EC50 (human MC1R; [2]) [nM]	Emax (human MC4R) [%]	EC50 (human MC4R) [nM]	pEC50 (human MC1R; [2])	% of MSH (human MC1R; [1]) [%]	Structure (SMILES)
72	51.3					CCCN(C(=O)CN1C=CN(c2ccccc2)C(=O)C(Cc2n[nH]c3ccccc23)C1=O)c1ccc(OC)cc1 (stereo not shown) [Example 23]
79	35.5					CC(C)N(C(=O)CN1C=CN(c2ccccc2)C(=O)C(Cc2n[nH]c3cc(F)ccc23)C1=O)c1ccccc1 (single isomer, unassigned) [Example 21]
91	22.4	51	204			CC(C)N(C(=O)CN1C=CN(c2ccccc2)C(=O)C(Cc2n[nH]c3ccccc23)C1=O)c1ccc(OC(F)(F)F)cc1 (stereo not shown) [Example 6]
69	269					Cc1ccc(N(C(=O)CN2C=CN(c3ccccc3)C(=O)C(Cc3n[nH]c4ccccc34)C2=O)C(C)C)cc1 (stereo not shown) [Example 14]
68	145	55	417			CC(C)N(C(=O)CN1C=CN(c2ccccc2)C(=O)C(Cc2n[nH]c3ccccc23)C1=O)c1ccc(C(F)(F)F)cc1 (stereo not shown) [Example 11]
41	74.1					CC(C)Oc1ccc(N(C(=O)CN2C=CN(c3ccccc3)C(=O)C(Cc3n[nH]c4ccccc34)C2=O)C(C)C)cc1 (stereo not shown) [Example 26]
95	129					COc1ccc(N(C(=O)CN2C=CN(c3ccccc3)C(=O)C(Cc3n[nH]c4c3CCCC4)C2=O)C(C)C)cc1 (stereo not shown) [Example 27]
40	224					CC(C)c1ccc(N(C(=O)CN2C=CN(c3ccccc3)C(=O)C(Cc3n[nH]c4ccccc34)C2=O)C(C)C)cc1 (stereo not shown) [Example 31]
84	72.4	49	398			CC(C)N(C(=O)CN1C=CN(c2ccccc2)C(=O)C(Cc2n[nH]c3ccccc23)C1=O)c1ccc(I)cc1 (stereo not shown) [Example 10]
64	110	65	513			CCOc1ccc(N(C(=O)CN2C=CN(c3ccccc3)C(=O)C(Cc3n[nH]c4ccccc34)C2=O)C(C)C)cc1 (stereo not shown) [Example 13]
83	1.58					COc1ccc(N(C(=O)CN2C=CN(c3ccccc3)C(=O)C(Cc3n[nH]c4cc(F)ccc34)C2=O)C(C)C)cc1 (stereo not shown) [Example 17]
50	40.7	77	347			COc1cccc2c1CCCCN2C(=O)CN1C=CN(c2ccccc2)C(=O)C(Cc2n[nH]c3ccccc23)C1=O (stereo not shown) [Example 7]
61	1.58					O=C1C(Cc2n[nH]c3cc(F)ccc23)C(=O)N(c2ccccc2)C=CN1CC(=O)N1CCCCc2ccccc21 (stereo not shown) [Example 15]
51	191					CC(C)N(C(=O)CN1C=CN(c2ccccc2)C(=O)C(Cc2n[nH]c3cc(F)ccc23)C1=O)c1ccccc1 (stereo not shown) [Example 20]
87	1.58					O=C1C(Cc2n[nH]c3ccccc23)C(=O)N(c2ccccc2)C=CN1CC(=O)N1CCCCc2ccccc21 (single isomer, unassigned) [Example 18]
61	19.5	56	437			COc1ccc(N(C(=O)CN2C=CN(c3ccccc3)C(=O)C(Cn3c(=O)[nH]c4ccccc43)C2=O)C(C)C)cc1 (stereo not shown) [Example 12]

Emax (human MC1R; [1]) [%]	EC50 (human MC1R; [2]) [nM]	Emax (human MC4R) [%]	EC50 (human MC4R) [nM]	pEC50 (human MC1R; [2])	% of MSH (human MC1R; [1]) [%]	Structure (SMILES)
54	295					CC(C)N(C(=O)CN1C=CN(c2ccccc2)C(=O)C(Cc2n[nH]c3ccccc23)C1=O)c1ccccc1 (stereo not shown) [Example 32]
68	29.5	56	417			COc1ccc(N(C(=O)CN2C=CN(c3ccccc3)C(=O)C(Cc3n[nH]c4ccccc34)C2=O)C(C)C)cc1 (stereo not shown) [Example 1]
73	112	58	42.7			CC(C)N(C(=O)CN1C=CN(c2ccccc2)C(=O)C(Cc2n[nH]c3ccccc23)C1=O)c1ccc(Cl)cc1 (stereo not shown) [Example 3]
37	200	65	389			CCCc1ccc(N(C(=O)CN2C=CN(c3ccccc3)C(=O)C(Cc3n[nH]c4ccccc34)C2=O)C(C)C)cc1 (stereo not shown) [Example 9]
		78	151			COC1(Cc2n[nH]c3ccccc23)C(=O)N(CC(=O)N(c2ccc(F)cc2)C(C)C)C=CN(c2ccccc2)C1=O (stereo not shown) [Example 5, 2-[2,4-dioxo-3-(1H-indazol-3-ylmethylene)-3-methoxy-5-phenyl-2,3,4,5-tetrahydro-1H-1,5-diazepin-1-yl]-N-(4-fluorophenyl) N-isopropylacetamide]
74	70.8	52	44.7			Cc1cc(OC(F)(F)F)ccc1N(C(=O)CN1C=CN(c2ccccc2)C(=O)C(Cc2n[nH]c3ccccc23)C1=O)C(C)C (stereo not shown) [Example 4]
85	18.6	51	282			COc1ccc(N(C(=O)CN2C=CN(c3ccccc3)C(=O)C(Cc3n[nH]c4ccccc34)C2=O)C(C)C)cc1 (single isomer, unassigned) [Example 2]
54	50.1					CC(C)N(C(=O)CN1C=CN(c2ccccc2)C(=O)C(Cc2n[nH]c3ccccc23)C1=O)c1ccc(F)cc1 (stereo not shown) [Example 22]
53	14.1					CC(C)N(C(=O)CN1C=CN(c2ccccc2)C(=O)C(Cc2n[nH]c3cc(F)ccc23)C1=O)c1ccc(F)cc1 (stereo not shown) [Example 19]
72	64.6					CCN(C(=O)CN1C=CN(c2ccccc2)C(=O)C(Cc2n[nH]c3ccccc23)C1=O)c1ccc(OC)cc1 (stereo not shown) [Example 25]
69	204					CC1CCc2ccccc2N1C(=O)CN1C=CN(c2ccccc2)C(=O)C(Cc2n[nH]c3ccccc23)C1=O (stereo not shown) [Example 30]
79	158					CC(C)N(C(=O)CN1C=CN(c2ccccc2)C(=O)C(Cc2n[nH]c3ccccc23)C1=O)c1ccc(O)cc1 (stereo not shown) [Example 28]
61	1.58					O=C1C(Cc2n[nH]c3ccccc23)C(=O)N(c2ccccc2)C=CN1CC(=O)N1CCCCc2ccccc21 (stereo not shown) [Example 16]
103	182					COc1ccc(N(C(=O)CN2C=CN(c3ccccc3)C(=O)C(Cn3cnc4ccccc43)C2=O)C(C)C)cc1 (stereo not shown) [Example 29]
				8.80	86	O=C1C(Cc2n[nH]c3ccccc23)C(=O)N(c2ccccc2)C=CN1CC(=O)N1CCCCc2ccccc21 (single isomer, unassigned) [Example 24]
72	148	53	347			CCc1ccc(N(C(=O)CN2C=CN(c3ccccc3)C(=O)C(Cc3n[nH]c4ccccc34)C2=O)C(C)C)cc1 (stereo not shown) [Example 8]
